The values that follow come from patent publication US20050234076A1, “Triazolopyrimidines” (priority 2002, published 2005).

Molecules are shown by their SMILES.

Tested on in the first data set: not listed separately
Put plainly: physchem.
Details: not given
Usually chromatographic logP stands for lipophilicity estimated from chromatographic retention. A higher chromatographic logP goes with a more lipophilic compound. Take `Fc1cccc(Cl)c1-c1c(Cl)nc2ncnn2c1N1NC2CCC1C2` (centres unmarked) [Example 28]: the chromatographic logP came to 2.59.
The same measure, in the same setting: to `CC1CCON1c1c(-c2c(F)cc(F)cc2F)c(Cl)nc2ncnn12` (centres unmarked) [Example 1, 5-chloro-6-(2,4,6-trifluorophenyl)-7-(3-methyl-2-isoxazolidinyl)[1,2,4]triazolo[1,5-a]pyrimidine] belongs 2.76; to `CC1CCON1c1c(-c2c(F)cccc2Cl)c(Cl)nc2ncnn12` (centres unmarked) [Example 42], 2.74; to `Fc1cc(F)c(-c2c(Cl)nc3ncnn3c2N2OC3CCC2C3)c(C(F)(F)F)c1` (centres unmarked) [Example 46], 3.1.
Still for that read-out and setting: under `Fc1cc(C(F)(F)F)cc(F)c1-c1c(Cl)nc2ncnn2c1N1CCCCN1` [Example 68] stands 3.26.
`Clc1ccccc1-c1c(Cl)nc2ncnn2c1N1OC2CCC1C2` (centres unmarked) [Example 33] had a chromatographic logP of 2.69.
`Fc1cc(F)c(-c2c(Cl)nc3ncnn3c2N2CCC=N2)c(F)c1` [Example 11] displayed a chromatographic logP of 2.34.
`CC1C=CCN(c2c(-c3c(F)cc(F)cc3F)c(Cl)nc3ncnn23)O1` (centres unmarked) [Example 58] registered a chromatographic logP of 3.12.
On the same count and under the same terms, to `Fc1ccc(-c2c(Cl)nc3ncnn3c2N2OC3CCC2C3)c(Cl)c1` (centres unmarked) [Example 44] belongs 2.89; to `Fc1cc(F)c(-c2c(Cl)nc3ncnn3c2N2CCCCN2)c(F)c1` [Example 10], 2.68; to `CCOC(=O)N1OCCC1C` (centres unmarked) [N-ethoxycarbonyl-3-methylisoxazolidine], 1.22.
In the case of `Fc1cccc(Cl)c1-c1c(Cl)nc2ncnn2c1N1OC2CCC1C2` (centres unmarked) [Example 34], the chromatographic logP was found to be 2.74.
Same read-out and setting: to `Fc1cc(F)c(-c2c(Cl)nc3ncnn3c2N2CCCCN2)c(C(F)(F)F)c1` [Example 67] belongs 3.06; to `CC1CCCON1c1c(-c2ccccc2Cl)c(Cl)nc2ncnn12` (centres unmarked) [Example 41], 3.17; to `Fc1ccc(-c2c(Cl)nc3ncnn3c2N2CCCCO2)c(F)c1` [Example 9], 2.84.
The same measure, in the same setting: to `Clc1cccc(Cl)c1-c1c(Cl)nc2ncnn2c1N1CCCCN1` [Example 21] belongs 2.88; to `Fc1cccc(F)c1-c1c(Cl)nc2ncnn2c1N1CCCCO1` [Example 31], 2.68; to `Fc1cc(F)c(-c2c(Br)nc3ncnn3c2N2CCCCN2)c(F)c1` [Example 24], 2.73.
In the case of `Fc1ccc(-c2c(Cl)nc3ncnn3c2N2OC3CCC2C3)c(F)c1` (centres unmarked) [Example 43], the chromatographic logP came to 2.67.
The compound `Fc1cccc(F)c1-c1c(Cl)nc2ncnn2c1N1CCCCN1` [Example 63] showed a chromatographic logP of 2.47.
In turn, `Fc1cc(F)c(-c2c(Cl)nc3ncnn3c2N2CCCCO2)c(F)c1` [Example 6] returned a chromatographic logP of 2.92.
In the case of `Clc1ccc(-c2c(Cl)nc3ncnn3c2N2CCCCN2)c(Cl)c1` [Example 69], the chromatographic logP is 3.22.
The compound `Fc1cc(F)c(-c2c(Cl)nc3ncnn3c2N2Cc3ccccc3CO2)c(F)c1` [Example 5] came in with a chromatographic logP of 3.53.
For the compound `CC1CCCON1c1c(-c2c(F)cc(F)cc2F)c(Cl)nc2ncnn12` (centres unmarked) [Example 35], the chromatographic logP was 3.23.
Same read-out and setting: to `Fc1ccc(-c2c(Cl)nc3ncnn3c2N2CCCCO2)c(Cl)c1` [Example 8] belongs 3.11; to `Fc1cccc(Cl)c1-c1c(Cl)nc2ncnn2c1N1CCCCN1` [Example 12], 2.67; to `Fc1cc(F)c(-c2c(Cl)nc3ncnn3c2N2NC3CCC2C3)c(F)c1` (centres unmarked) [Example 27], 2.65.
In turn, `Fc1cc(F)c(-c2c(Cl)nc3ncnn3c2N2OC3CCC2C3)c(F)c1` (centres unmarked) [Example 18] had a chromatographic logP of 2.75.

The next data set relates to Botrytis cinerea. Put plainly: Botrytis Test (bean)/protective. It is filed as in vivo. The note with it: 48 h, bean plants, protective spray, evaluation 2 days after inoculation, 100% = no infection, read-out: Efficacy in %. How it is done:
Botrytis Test (bean)/protective
Solvents: 24.5 parts by weight of acetone • 24.5 parts by of dimethylacetamide
Emulsifier: 1.0 part by weight of alkylaryl polyglycol ether
To produce a suitable preparation of active compound, 1 part by weight of active compound is mixed with the stated amounts of solvent and emulsifier, and the concentrate is diluted with water to the desired concentration.
To test for protective activity, young plants are sprayed with the preparation of active compound at the stated application rate. After the spray coating has dried on, 2 small pieces of agar colonized by Botrytis cinerea are placed onto each leaf. The inoculated plants are placed in a dark chamber at about 20° C. and 100% relative atmospheric humidity.
2 days after the inoculation the size of the infected areas on the leaves is evaluated. 0% means an efficacy which corresponds to that of the control, whereas an efficacy of 100% means that no infection is observed.
As for `Fc1cccc(Cl)c1-c1c(Cl)nc2ncnn2c1N1NC2CCC1C2` (centres unmarked) [drawing 94], the pest or weed control at 500 g/ha was 100%.
Still for that read-out and setting: under `Fc1cc(F)c(-c2c(Br)nc3ncnn3c2N2CCCCN2)c(F)c1` [drawing 99] stands 100%; under `Fc1cc(F)c(-c2c(Cl)nc3ncnn3c2N2CC=CCO2)c(F)c1`, 100%; under `Fc1ccc(-c2c(Cl)nc3ncnn3c2N2OC3CCC2C3)c(F)c1` (centres unmarked) [drawing 88], 99%.
On to `Fc1ccc(-c2c(Cl)nc3ncnn3c2N2CCCCO2)c(Cl)c1` [drawing 74], for which the pest or weed control at 500 g/ha was 100%.
In the case of `Fc1cccc(Cl)c1-c1c(Cl)nc2ncnn2c1N1OC2CCC1C2` (centres unmarked) [drawing 86], the pest or weed control at 500 g/ha was found to be 100%.
With `Fc1ccc(-c2c(Cl)nc3ncnn3c2N2OC3CCC2C3)c(Cl)c1` (centres unmarked) [drawing 90], the pest or weed control at 500 g/ha turned out to be 100%.
In the case of `Fc1cc(F)c(-c2c(Cl)nc3ncnn3c2N2CCCCN2)c(F)c1` [drawing 77], the pest or weed control at 500 g/ha was 100%.
For the compound `Clc1ccc(-c2c(Cl)nc3ncnn3c2N2CCCCN2)c(Cl)c1` [drawing 97], the pest or weed control at 500 g/ha was 95%.
Turning to `Fc1ccc(-c2c(Cl)nc3ncnn3c2N2CCCCO2)c(F)c1` [drawing 75], the pest or weed control at 500 g/ha was 100%.
With `Fc1cc(F)c(-c2c(Cl)nc3ncnn3c2N2CCCCO2)c(F)c1` [drawing 73], the pest or weed control at 500 g/ha amounted to 100%.
For `Fc1cc(C(F)(F)F)cc(F)c1-c1c(Cl)nc2ncnn2c1N1CCCCN1` [drawing 98], the pest or weed control at 500 g/ha was found to be 95%.
As for `CC1C=CCN(c2c(-c3c(F)cc(F)cc3F)c(Cl)nc3ncnn23)O1` (centres unmarked) [drawing 80], the pest or weed control at 500 g/ha was 93%.
Consider `Clc1ccccc1-c1c(Cl)nc2ncnn2c1N1OC2CCC1C2` (centres unmarked) [drawing 84], for which the pest or weed control at 500 g/ha amounted to 93%.
On to `Fc1cc(F)c(-c2c(Cl)nc3ncnn3c2N2CCC=N2)c(F)c1` [drawing 91], for which the pest or weed control at 500 g/ha was 100%.
As to `Fc1cc(F)c(-c2c(Cl)nc3ncnn3c2N2NC3CCC2C3)c(F)c1` (centres unmarked) [drawing 93], the pest or weed control at 500 g/ha is 96%.
The same measure, in the same setting: to `Fc1cc(F)c(-c2c(Cl)nc3ncnn3c2N2OC3CCC2C3)c(C(F)(F)F)c1` (centres unmarked) [drawing 78] belongs 100%; to `Clc1cccc(Cl)c1-c1c(Cl)nc2ncnn2c1N1CCCCN1` [drawing 92], 99%.
Still for that read-out and setting: under `Fc1cc(F)c(-c2c(Cl)nc3ncnn3c2N2OC3CCC2C3)c(F)c1` (centres unmarked) [drawing 81] stands 98%.
Same read-out and setting: under `Fc1cccc(Cl)c1-c1c(Cl)nc2ncnn2c1N1CCCCN1` [drawing 76] stands 100%; under `CC1CCON1c1c(-c2c(F)cccc2Cl)c(Cl)nc2ncnn12` (centres unmarked) [drawing 87], 100%; under `CC1CCCON1c1c(-c2c(F)cc(F)cc2F)c(Cl)nc2ncnn12` (centres unmarked) [drawing 82], 100%.
Consider `CC1CCCON1c1c(-c2ccccc2Cl)c(Cl)nc2ncnn12` (centres unmarked) [drawing 89], for which the pest or weed control at 500 g/ha turned out to be 99%.
Turning to `CC1CCON1c1c(-c2c(F)cc(F)cc2F)c(Cl)nc2ncnn12` (centres unmarked) [drawing 83], the pest or weed control at 500 g/ha is 100%.
Regarding `Fc1cc(F)c(-c2c(Cl)nc3ncnn3c2N2Cc3ccccc3CO2)c(F)c1` [drawing 72], the pest or weed control at 500 g/ha amounted to 100%.
Regarding `Fc1cc(F)c(-c2c(Cl)nc3ncnn3c2N2CCCCN2)c(C(F)(F)F)c1` [drawing 96], the pest or weed control at 500 g/ha amounted to 100%.
`Fc1cccc(F)c1-c1c(Cl)nc2ncnn2c1N1CCCCO1` [drawing 85]: the pest or weed control at 500 g/ha turned out to be 100%.
As to `Fc1cccc(F)c1-c1c(Cl)nc2ncnn2c1N1CCCCN1` [drawing 95], the pest or weed control at 500 g/ha is 95%.

The next data set has as its system Venturia inaequalis. The data set can be described thus: Venturia Test (apple)/protective. It is filed as in vivo. The conditions noted are these: 240 h, apple plants, protective spray, evaluation 10 days after inoculation, 100% = no infection, read-out: Efficacy in %. How it is done:
Venturia Test (apple)/protective Solvents: 24.5 parts by weight of acetone • 24.5 parts by weight of dimethylacetamide Emulsifier: 1.0 parts by weight alkylaryl polyglycol ether To produce a suitable preparation of active compound, 1 part by weight of active compound is mixed with the stated amounts of solvent and emulsifier, and the concentrate is diluted with water to the desired concentration. To test for protective activity, young plants are sprayed with the preparation of active compound at the stated application rate. […] The plants are then placed in a greenhouse at about 21° C. and a relative atmospheric humidity of about 90%.
Consider `Fc1cc(F)c(-c2c(Cl)nc3ncnn3c2N2CCCCN2)c(C(F)(F)F)c1` [drawing 68], for which the pest or weed control at 100 g/ha came out at 100%.
In the case of `Fc1cc(F)c(-c2c(Cl)nc3ncnn3c2N2NC3CCC2C3)c(F)c1` (centres unmarked) [drawing 65], the pest or weed control at 100 g/ha was determined as 93%.
On to `Fc1cc(F)c(-c2c(Cl)nc3ncnn3c2N2CCC=N2)c(F)c1` [drawing 63], for which the pest or weed control at 100 g/ha was 96%.
Turning to `Fc1ccc(-c2c(Cl)nc3ncnn3c2N2OC3CCC2C3)c(F)c1` (centres unmarked) [drawing 60], the pest or weed control at 100 g/ha came to 100%.
The same measure, in the same setting: under `Fc1cccc(F)c1-c1c(Cl)nc2ncnn2c1N1CCCCN1` [drawing 67] stands 96%; under `Fc1cc(F)c(-c2c(Br)nc3ncnn3c2N2CCCCN2)c(F)c1` [drawing 71], 93%; under `Fc1ccc(-c2c(Cl)nc3ncnn3c2N2OC3CCC2C3)c(Cl)c1` (centres unmarked) [drawing 62], 100%.
As to `Clc1ccccc1-c1c(Cl)nc2ncnn2c1N1OC2CCC1C2` (centres unmarked) [drawing 56], the pest or weed control at 100 g/ha worked out at 99%.
Take `Fc1cc(F)c(-c2c(Cl)nc3ncnn3c2N2Cc3ccccc3CO2)c(F)c1` [drawing 45]: the pest or weed control at 100 g/ha worked out at 100%.
Turning to `CC1CCON1c1c(-c2c(F)cccc2Cl)c(Cl)nc2ncnn12` (centres unmarked) [drawing 59], the pest or weed control at 100 g/ha amounted to 100%.
Turning to `CC1CCCON1c1c(-c2c(F)cc(F)cc2F)c(Cl)nc2ncnn12` (centres unmarked) [drawing 54], the pest or weed control at 100 g/ha is 100%.
Take `Fc1cccc(Cl)c1-c1c(Cl)nc2ncnn2c1N1CCCCN1` [drawing 49]: the pest or weed control at 100 g/ha stood at 100%.
